The values that follow come from US9737260B2, “Methods for determining total body skeletal muscle mass” (GLAXOSMITHKLINE LLC, priority 2011, dated 2017).

A value given as a limit tells only on which side of the number the result lay.

The conditions of data set [1]: rat, oral dose of 0.475 mg D3-creatine per rat.
Data set [2] in a line: Dexamethasone-induced skeletal muscle atrophy in rats: lean body mass by QMR and creatine pool size by D3-creatine dilution. The conditions noted are these: 22 week-old rats, once daily subcutaneous for 2 weeks; P<0.001 vs vehicle (459±45 g).

As for `[2H]C([2H])([2H])N(CC(=O)O)C(=N)N` [D3-creatine], in data set [1], the “absorption of oral dose” value is “rapidly and completely absorbed”. Moreover, the “D3-creatine tracer dose available to equilibrate with the body creatine pool” value in data set [1] (minimal urinary spillage) was greater than 99%.

As for `C[C@@H]1C[C@H]2[C@@H]3CCC4=CC(=O)C=C[C@]4(C)[C@@]3(F)[C@@H](O)C[C@]2(C)[C@@]1(O)C(=O)CO` [dexamethasone], in data set [2], the “lean body mass (LBM)” value turned out to be 353 ± 32 g.
